Where “and” joins values, the source holds several entries; their conditions need not be identical. Equal entries are not always repeated. Inconclusive results and toxic doses are left out. Rule as the data show it: active = T/C of 150% or more; inactive = T/C below 125%.
Test system: L1210 leukemia ip in BDF1 mice, survival T/C
Test: NCI In Vivo Anticancer Drug Screen. Data for tumor model L1210 Leukemia (intraperitoneal) in B6D2F1 (BDF1) mice
Conditions: endpoint: mean survival time, higher = longer survival
Method in brief: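 Transplanted-tumor mice were given test agent; controls received vehicle only. Survival readings from the two groups were divided (treated over control).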

[1] = dose: 100.0 mg/kg/injection, schedule: Q04DX003 (ip), vehicle: Klucel (hydroxypropylcellulose) (HPC)
[2] = dose: 6.25 mg/kg/injection, schedule: Q01DX009 (ip), vehicle: saline
[3] = dose: 12.5 mg/kg/injection, schedule: Q01DX009 (ip), vehicle: saline
[4] = dose: 15.0 mg/kg/injection, schedule: Q01DX009 (ip), vehicle: saline
[5] = dose: 25.0 mg/kg/injection, schedule: Q01DX009 (ip), vehicle: saline
[6] = dose: 100.0 mg/kg/injection, schedule: Q04DX003 (ip), vehicle: saline with Tween-80
[7] = dose: 200.0 mg/kg/injection, schedule: Q04DX003 (ip), vehicle: saline with Tween-80
[8] = dose: 400.0 mg/kg/injection, schedule: Q04DX003 (ip), vehicle: saline with Tween-80
[9] = dose: 100.0 mg/kg/injection, schedule: Q01DX001 (ip), vehicle: saline with Tween-80
[10] = dose: 100.0 mg/kg/injection, schedule: Q01DX009 (ip), vehicle: saline with Tween-80
[11] = dose: 200.0 mg/kg/injection, schedule: Q01DX001 (ip), vehicle: saline with Tween-80
[12] = dose: 200.0 mg/kg/injection, schedule: Q01DX009 (ip), vehicle: saline with Tween-80
[13] = dose: 400.0 mg/kg/injection, schedule: Q01DX001 (ip), vehicle: saline with Tween-80
[14] = dose: 400.0 mg/kg/injection, schedule: Q01DX009 (ip), vehicle: saline with Tween-80
[15] = dose: 100.0 mg/kg/injection, schedule: Q04DX002 (ip), vehicle: saline with Tween-80

Measured: T/C

CN=C(N)C(C)Cl (stereo not given)
inactive: dose: 100.0 mg/kg/injection, schedule: Q04DX002 (ip), vehicle: saline 106 % of control | dose: 200.0 mg/kg/injection, schedule: Q04DX002 (ip), vehicle: saline 103 % of control | dose: 400.0 mg/kg/injection, schedule: Q04DX002 (ip), vehicle: saline 103 % of control

NC(N)=N/N=C(\C=N\N=C(N)N)c1ccc(-c2ccc(C(/C=N/N=C(N)N)=N\N=C(N)N)cc2)cc1
inactive: dose: 15.0 mg/kg/injection, schedule: Q01DX Z (oral), vehicle: saline 102 % of control | dose: 30.0 mg/kg/injection, schedule: Q01DX Z (oral), vehicle: saline 96 % of control | dose: 60.0 mg/kg/injection, schedule: Q01DX Z (oral), vehicle: saline 98 % of control | dose: 120.0 mg/kg/injection, schedule: Q01DX Z (oral), vehicle: saline 100 % of control

CN(Cc1cnc2nc(N)c([N+](=O)[O-])c(N)c2n1)c1ccc(C(=O)NC(CCC(=O)O)C(=O)O)cc1 (stereo not given)
inactive: dose: 100.0 mg/kg/injection, schedule: Q04DX002 (ip), vehicle: sodium bicarbonate 89 % of control | dose: 200.0 mg/kg/injection, schedule: Q04DX002 (ip), vehicle: sodium bicarbonate 99 % of control

c1coc(C2SCSCS2)c1
inactive: [1] 105 % of control | dose: 200.0 mg/kg/injection, schedule: Q04DX003 (ip), vehicle: Klucel (hydroxypropylcellulose) (HPC) 101 % of control | dose: 400.0 mg/kg/injection, schedule: Q04DX003 (ip), vehicle: Klucel (hydroxypropylcellulose) (HPC) 95 % of control

COc1ccc2c(C)[n+]3ccc4cc(OC)c(OC)cc4c3cc2c1 (tested in a mixture with another compound)
inactive: dose: 2.5 mg/kg/injection, schedule: Q01DX009 (ip), vehicle: saline 120 % of control | dose: 5.0 mg/kg/injection, schedule: Q01DX009 (ip), vehicle: saline 121 % of control | [2] 117 % of control | [3] 121 % of control | [4] 110 % of control | dose: 20.0 mg/kg/injection, schedule: Q01DX009 (ip), vehicle: saline 123 % of control | [5] 123 % of control | dose: 40.0 mg/kg/injection, schedule: Q01DX009 (ip), vehicle: saline 124 % of control | dose: 50.0 mg/kg/injection, schedule: Q01DX009 (ip), vehicle: saline 115 % of control | dose: 80.0 mg/kg/injection, schedule: Q01DX009 (ip), vehicle: saline 105 % of control | dose: 100.0 mg/kg/injection, schedule: Q01DX009 (ip), vehicle: saline 115 % of control | dose: 108.0 mg/kg/injection, schedule: Q01DX009 (ip), vehicle: saline 100 % of control

COC(=O)c1cc(Br)ccc1OCC(=O)Nc1ccccc1
inactive: [6] 94 % of control | [7] 94 % of control | [8] 91 % of control

NC(Cc1ccc(OCc2ccccc2)cc1)C(=O)O (stereo not given)
inactive: [9] 92 % of control | [10] 95 % of control | [11] 89 % of control | [12] 90 % of control | [13] 89 % of control | [14] 96 % of control

CCOC(=O)/C(C#N)=C\c1cccs1
inactive: [1] 103 % of control

COc1cccc(C2Nc3cc(Cl)ccc3S2)c1O (stereo not given)
inactive: dose: 75.0 mg/kg/injection, schedule: Q01DX001 (ip), vehicle: saline 105 % of control | dose: 150.0 mg/kg/injection, schedule: Q01DX001 (ip), vehicle: saline 109 % of control | dose: 300.0 mg/kg/injection, schedule: Q01DX001 (ip), vehicle: saline 105 % of control

CC(=O)C1=CC(=O)c2ccccc2C1=O
inactive: dose: 20.0 mg/kg/injection, schedule: Q01DX001 (ip), vehicle: water 103 % of control | dose: 40.0 mg/kg/injection, schedule: Q01DX001 (ip), vehicle: water 95 % of control | dose: 80.0 mg/kg/injection, schedule: Q01DX001 (ip), vehicle: water 93 % of control

C1C[S][Sn]2([S]CCO1)[S]CCOCC[S]2
inactive: dose: 12.5 mg/kg/injection, schedule: Q01DX001 (ip), vehicle: saline with Tween-80 94 % of control | dose: 25.0 mg/kg/injection, schedule: Q01DX001 (ip), vehicle: saline with Tween-80 106 % of control | dose: 50.0 mg/kg/injection, schedule: Q01DX001 (ip), vehicle: saline with Tween-80 87 % of control

C#CCCCOC(=O)Nc1ccccc1
inactive: dose: 50.0 mg/kg/injection, schedule: Q01DX009 (ip), vehicle: Klucel (hydroxypropylcellulose) (HPC) 97 % of control | dose: 100.0 mg/kg/injection, schedule: Q01DX009 (ip), vehicle: Klucel (hydroxypropylcellulose) (HPC) 103 % of control | dose: 200.0 mg/kg/injection, schedule: Q01DX009 (ip), vehicle: Klucel (hydroxypropylcellulose) (HPC) 89 % of control

CC1(C)NC(=O)NC(=O)C1Br (stereo not given)
inactive: dose: 100.0 mg/kg/injection, schedule: Q01DX Z (ip), vehicle: methylcellulose (MC) 96 % of control

CN(C)c1ccc(/C=N/N=C(N)N)cc1
inactive: dose: 15.0 mg/kg/injection, schedule: Q01DX Z (ip), vehicle: saline 89 % of control | dose: 30.0 mg/kg/injection, schedule: Q01DX Z (ip), vehicle: saline 92 % of control | dose: 30.0 mg/kg/injection, schedule: Q01DX Z (oral), vehicle: other 100 % of control | dose: 60.0 mg/kg/injection, schedule: Q01DX Z (ip), vehicle: saline 100 % of control | dose: 60.0 mg/kg/injection, schedule: Q01DX Z (oral), vehicle: other 97 % of control | dose: 120.0 mg/kg/injection, schedule: Q01DX Z (oral), vehicle: other 109 % of control

Cc1ccc([N+](=O)[O-])cc1NC(=O)NCCCl
inactive: [6] 90 % of control | [7] 90 % of control | [8] 92 % of control

CNC1CC2CCC(C2)C1(O)c1ccccc1 (stereo not given)
inactive: dose: 25.0 mg/kg/injection, schedule: Q04DX003 (ip), vehicle: saline 91 % of control | dose: 50.0 mg/kg/injection, schedule: Q04DX003 (ip), vehicle: saline 113 % of control | dose: 100.0 mg/kg/injection, schedule: Q01DX001 (ip), vehicle: saline 100 % of control | dose: 100.0 mg/kg/injection, schedule: Q04DX003 (ip), vehicle: saline 102 % of control

CCOC(=O)c1ccc(NC(=O)Nc2ccc(OC)cc2Cl)cc1
inactive: [9] 96 % of control | [10] 104 % of control | [15] 94 % of control and 90 % of control | [6] 101 % of control | [11] 91 % of control | [12] 104 % of control | dose: 200.0 mg/kg/injection, schedule: Q04DX002 (ip), vehicle: saline with Tween-80 90 % of control and 91 % of control | [7] 97 % of control | [13] 106 % of control | [14] 92 % of control | dose: 400.0 mg/kg/injection, schedule: Q04DX002 (ip), vehicle: saline with Tween-80 94 % of control and 87 % of control | [8] 92 % of control

CCOP(=O)(Nc1ccc2oc(=O)c3ccccc3c2c1)OCC
inactive: dose: 50.0 mg/kg/injection, schedule: Q01DX001 (ip), vehicle: carboxymethylcellulose (CMC) 100 % of control | dose: 100.0 mg/kg/injection, schedule: Q01DX001 (ip), vehicle: carboxymethylcellulose (CMC) 100 % of control | dose: 200.0 mg/kg/injection, schedule: Q01DX001 (ip), vehicle: carboxymethylcellulose (CMC) 110 % of control | dose: 400.0 mg/kg/injection, schedule: Q01DX001 (ip), vehicle: carboxymethylcellulose (CMC) 97 % of control

Cn1cnc([N+](=O)[O-])c1[Se]c1ncnc2c1c(C#N)cn2C1OC(CO)C(O)C1O (stereo not given)
inactive: [2] 111 % of control | dose: 12.5 mg/kg/injection, schedule: Q01DX005 (ip), vehicle: saline 95 % of control | [3] 113 % of control | [4] 103 % of control | dose: 25.0 mg/kg/injection, schedule: Q01DX005 (ip), vehicle: saline 111 % of control | [5] 108 % of control and 117 % of control | dose: 42.0 mg/kg/injection, schedule: Q01DX009 (ip), vehicle: saline 110 % of control

CC(O)(C#CC(C)(O)c1ccccc1)c1ccccc1 (stereo not given)
inactive: [10] 97 % of control | [12] 98 % of control | [14] 113 % of control

CCC(=O)c1cc2c(c3c1CCCC3)CCCC2
inactive: dose: 200.0 mg/kg/injection, schedule: Q01DX009 (ip), vehicle: other 90 % of control

CCCSCCN=C(N)C(N)=NCCSCCC
inactive: dose: 25.0 mg/kg/injection, schedule: Q04DX002 (ip), vehicle: saline with Tween-80 88 % of control | dose: 50.0 mg/kg/injection, schedule: Q04DX002 (ip), vehicle: saline with Tween-80 95 % of control | [15] 97 % of control and 101 % of control

From PubChem BioAssay AID248 (DTP/NCI, 2004)
